# Patent US20220218734A1, “COMBINATIONS OF THERAPEUTIC AGENTS FOR TREATING UVEAL MELANOMA” (Universiteit Gent, priority 2019, published 2022)
# Experiments:
# [1] = tested on: UM cell lines 92.1 and OMM1; assay: ASO-compound combination validation, Excess over Bliss (viability and confluence); type: cell-based, human; conditions: compound combined with LNA ASO 3 (50 nM), 72 h, viability and confluence read outs; >0 synergism
# Protocol: For the validation experiments, uveal melanoma cell lines 92.1 and OMM1 were seeded in 96 well plates (Corning costar 3596) at a density of 5000 cells/well and were allowed to settle overnight. Subsequently, the cells were transfected using lipofectamine 2000 (Life Technologies) with 50 or 100 nM LNA ASO 3 or LNA NTC and treated with various concentrations of the compounds and with a final DMSO concentration of maximum 0.1%. The compounds were added to the wells using the HP D300e Digital dispenser (Tecan). Control cells were transfected with LNA NTC ASO and treated with DMSO.
# Cell viability was also examined using a CellTiter-Glo assay (Promega). Before initiating the assay, the culture plates and reconstituted assay buffer were placed at room temperature for 30 minutes. Next, the culture medium was replaced by 200 μl fresh culture medium—- assay buffer (1:1) mix. To induce complete cell lysis, the plates were shaken for 10 min. 100 μl from each well was subsequently transferred to an opaque 96-well plate (Nunc), which was measured with a GloMax 96 Microplate Luminometer (Promega). The CellTiter-Glo assay was performed on various predefined timepoints.
# For real-time analysis, IncuCyte Zoom system and IncuCyte S3 system (Essen BioScience) were used. Cells were seeded and treated as described above. After treatment, the culture plate was incubated in an IncuCyte Zoom system or IncuCyte S3 system at 37° C. in a humidified 5% CO2 incubator. Phase contrast whole well images were captured every 3 h. The IncuCyte ZOOM and IncuCyte S3 software (Essen BioScience) were utilized in real-time to measure % confluence, as a proxy for proliferation.
# Bliss independence (BI) scores were calculated to determine ASO-compound interactions. The predictive performance (BI score) is then compared to the observed drug interaction data measured by the Excess over Bliss. Excess over Bliss scores>0 indicate drug synergism, Excess over Bliss scores=0 indicate additive effects and Excess over Bliss scores<0 indicate drug antagonism.
# 4E-BP1 (T37/T46) = assay: Western blot for 4E-BP1 and phospho-4E-BP1; type: cell-based, human; conditions: 92.1, 24 h, GDC-0349 0.625 μM or 1.25 μM; for phosphorylated 4E-BP1 (T37/T46) levels: ASO 3 50 nM
# Protocol: (§1) Cells were lysed in RIPA lysis buffer (5 mg/ml sodium deoxycholate, 150 mM NaCl, 50 mM Tris-HCl pH 7.5, 0.1% SDS solution, 1% NP-40) supplemented with protease and/or phosphatase inhibitors Protein concentrations were determined with the BCA protein assay (Bio-Rad). In total, 35 μg of protein lysate was loaded onto an SDS-PAGE gel (10% Pre-cast, Bio-Rad), run at 100 V for 1 h and subsequently blotted onto a nitrocellulose membrane. Antibodies against phospho-S6 Ribosomal Protein (Ser235/236) (#2211, 1:1000 dilution), phospho-4E-BP(Thr37/46) (#2855, 1:1000 dilution), S6 Ribosomal Protein (#2317, 1:1000 dilution) and 4E-BP1 (#9644, 1:1000 dilution) were purchased from Cell Signaling Technology. HRP-labeled anti-rabbit (7074 S, Cell Signaling, 1:10 000 dilution) and anti-mouse (7076P2, Cell Signaling, 1:10 000 dilution) antibodies were used as secondary antibodies. Anti-Vinculin antibody (V9131, Sigma-Aldrich, 1:10 000 dilution) was used as loading control. The antibodies were diluted in BSA/TBST (5% BSA in TBS with 0.1% Tween20) and antibody binding with membrane was evaluated using the SuperSignal West Dura Extended Duration Substrate (ThermoFisher Scientific) or SuperSignal West Femto Maximum Sensitivity Substrate (ThermoFisher Scientific). Imaging was performed by means of the Amersham Imager 680 (GE Healthcare). Image J was used for the quantification of the blots.
# UM cell line OMM1 = assay: Seahorse XF Cell Mito Stress Test; type: cell-based, human; conditions: GDC-0349 0.625 μM, ASO 3 50 nM, combination compared to single ASO 3 treatment
# Protocol: Cells were seeded in T75 culture flasks (Cellstar) at a density of 1 170 000 cells/T75 flask 24 h prior to transfection. The cells were transfected with 50 nM ASO 3 or NTC using lipofectamine 2000, followed by GDC-0349 (0.625 μM) treatment. Four hours later, 25 000 cells were transferred to Seahorse XFp Cell Culture Miniplates (Agilent) and were allowed to settle overnight. Subsequently, oxygen consumption rates were measured in triplicates for each condition using the Seahorse XFp device (Agilent) according to the standard mito stress test procedures in seahorse assay medium supplemented with 14.3 mM glucose, 1 mM pyruvate and 2 mM glutamine (Sigma), and cells were sequentially challenged with 1 μM oligomycin, 1 μM carbonyl cyanide 4-(trifluoromethoxy)-phenylhydrazone (FCCP) and 0.5 μM of a rotenone antimycin A mix (Agilent). Following the assay, protein concentrations were calculated based upon absorbance reading at 280 nm (Biodrop, Isogen Lifescience) for normalization of the results. Spare respiratory capacity was calculated as the difference between maximal and the basal oxygen consumption rate. Relative oxygen consumption rates are relative compared to NTC values.
# rpS6 (S235/S236) = assay: Western blot for rpS6 and phospho-rpS6; type: cell-based, human; conditions: 92.1, 24 h, GDC-0349 0.625 μM or 1.25 μM; for phosphorylated rpS6 (S235/S236) levels: ASO 3 50 nM
# Protocol: as §1
# [2] = tested on: UM cell lines 92.1 and OMM1; assay: SUnSET puromycin incorporation (translation rate); type: cell-based, human; conditions: 92.1 and OMM1, 24 h; ASO 3 50 nM, GDC-0349 0.625 μM
# Protocol: Cells were seeded in T75 culture flasks (Cellstar) at a density of 1 170 000 cells/T75 flask 24 h prior to transfection. The cells were transfected with 50 nM LNA ASO 3 or NTC using lipofectamine 2000, followed by GDC-0349 (0.625 μM) or DMSO treatment. 24 h later, cells were washed in 1× phosphate buffer saline (PBS) and subsequently incubated with puromycin containing media (InvivoGen, 10 μg/ml) for 10 min. Puromycin incorporation is a proxy for the mRNA translation rate in vitro and was measured by Western blotting using an anti-puromycin antibody (MABE343, clone 12D10, Merck Millipore, 1:10 000). The antibody was diluted in Milk/TB ST (5% non-fat dry milk in TBS with 0.1% Tween20). Imaging was performed by means of the Amersham Imager 680 (GE Healthcare). An equal protein loading was verified using a ponceau S staining (Sigma Aldrich). Image J was used for the quantification of the blots.
# [3] = tested on: UM cell lines 92.1 and OMM1; assay: Differential gene expression analysis by RNA sequencing; type: cell-based, human; conditions: 92.1 and OMM1, 24 h; ASO 3 50 nM, GDC-0349 0.625 μM
# Protocol: RNA sequencing was performed on quadruplicates of NTC (50 nM), ASO 3 (50 nM), GDC-0349 (0.625 μM) and ASO 3 (50 nM)+GDC-0349 (0.625 μM) treated 92.1 and OMM1 cells. Libraries for RNA sequencing were prepared using the Quant Seq 3′ end library prep […] and quantified on a Qubit 2.0 Fluorometer prior to single-end sequencing with 75 bp read length on a NextSeq 500 sequencer (Illumina). Reads were mapped to the human genome (hg38) and gene expression was quantified using HTSeq. Differentialy expressed genes were identified using DESeq2.
# [4] = tested on: UM patient derived xenografts (PDX) model (MP46); assay: Tumor growth in UM patient derived xenograft model; type: in vivo, mouse
# Protocol: Since SAMMSON expression is not conserved across species, an UM patient derived xenografts (PDX) model (MP46) was used to investigate the effect on tumor growth in vivo upon SAMMSON knock down. LNA ASO 3 and LNA non targeting control (NTC) were subcutaneous injected at a dose of 10 mg/kg three times in the first week and twice per week in the second and third week.
# SAMMSON = SAMMSON expression / knockdown by RT-qPCR in UM cells; type: cell-based, human; conditions: in most cell lines
# Protocol: Total RNA was extracted using the miRNeasy kit (Qiagen) according to the manufacturer's instructions, including on-column DNase treatment. The Nanodrop (ThermoFisher Scientific) was used to determine RNA concentrations and cDNA synthesis was performed using the iScript Advanced cDNA synthesis kit (Bio-Rad) using a mix containing 200 ng of RNA, 4 μl of 5× iScript advanced reaction buffer and 1 μl of iScript advanced reverse transcriptase. The qPCR mix contains 2 μl of cDNA (5 ng), 2.5 μl SsoAdvanced Universal SYBR Green Supermix (Bio-Rad), 0.25 μl forward (5 μM, IDT) and reverse primer (5 μM, IDT) and was analyzed on a LC-480 device (Roche). Expression levels were normalized using expression data of at least 2 stable reference genes out of 4 tested reference genes (SDHA^9,10, HPRT1^11,12, UBC^13 and TBP^14,15). Analysis was performed using the qbase+software (https://www.qbaseplus.com).
molecule,measurement,setting,value
"Oc1c(I)cc(Cl)c2cccnc12 [clioquinol, 5-chloro-7-iodoquinolin-8-ol]",Excess over Bliss score (synergism),[1],synergistic
"Nc1ccccc1NC(=O)c1ccc(CNC(=O)OCc2cccnc2)cc1 [entinostat, (pyridin-3-yl)methyl N-({4-[(2-aminophenyl)carbamoyl]phenyl}methyl)carbamate]",Excess over Bliss score (synergism),[1],synergistic
"Cc1cc(C)c(-c2csc(NC(=O)c3ccccc3)n2)c(C)c1 [INH-6, N-[4-(2,4,6-trimethylphenyl)-2-thiazolyl]-benzamide]",Excess over Bliss score (synergism),[1],synergistic
"COc1cc(NS(C)(=O)=O)ccc1Nc1c2ccccc2nc2ccccc12 [amsacrine, N-{4-[(acridin-9-yl)amino]-3-methoxyphenyl}methanesulfonamide]",Excess over Bliss score (synergism),[1],synergistic
"CC(=O)Nc1ccc(C(=O)Nc2ccccc2N)cc1 [CI-994, N-(2-aminophenyl)-4-acetamidobenzamide]",Excess over Bliss score (synergism),[1],synergistic
"CCNC(=O)Nc1ccc(-c2nc3c(c(N4CCOC[C@@H]4C)n2)CCN(C2COC2)C3)cc1 [GDC-0349, 3-ethyl-1-(4-{4-[(3S)-3-methylmorpholin-4-yl]-7-(oxetan-3-yl)-5H,6H,7H,8H-pyrido[3,4-d]pyrimidin-2-yl}phenyl)urea]",phosphorylated 4E-BP1 (T37/T46) levels,4E-BP1 (T37/T46),dose dependent reduction
same,total 4E-BP1 levels,4E-BP1 (T37/T46),remain unaffected
same,mitochondrial function / oxidative phosphorylation (oxygen consumption rate),UM cell line OMM1,does not alter the mitochondrial function
same,Excess over Bliss score (synergism),[1],synergistic
same,phosphorylated rpS6 (S235/S236) levels,rpS6 (S235/S236),dose dependent reduction
same,total rpS6 levels,rpS6 (S235/S236),remain unaffected
same,translation rate (incorporated puromycin signal),[2],translation inhibition
same,expression pattern of differentially expressed genes compared to NTC ASO,[3],not affecting the expression of many of these genes
"CC#C[C@]1(O)CC[C@H]2[C@@H]3CCC4=CC(=O)CCC4=C3[C@@H](c3ccc(N(C)C)cc3)C[C@@]21C [mifepristone, (1S,3aS,3bS,10R,11 aS)-10-[4-(dimethylamino)phenyl]-1-hydroxy-11a-methyl-1-(prop-1-yn-1-yl)-1H,2H,3H,3aH,3bH,4H,5H,7H,8H,9H,10H,11H,11aH-cyclopenta[a]phenanthren-7-one]",Excess over Bliss score (synergism),[1],synergistic
"LNA ASO 3: LNA gapmer antisense oligonucleotide targeting SAMMSON, GTGTGAACTTGGCT (SEQ ID NO: 1), purchased from Qiagen (LNA gapmer from Qiagen, pattern not given here)",phosphorylated 4E-BP1 (T37/T46) levels,4E-BP1 (T37/T46),less phosphorylated 4E-BP1
same,weight loss,"[4]; subcutaneous 10 mg/kg LNA ASO 3, PDX mice",no weight loss
same,tumor growth,"[4]; subcutaneous 10 mg/kg, three times in first week, twice per week in second and third week, compared to NTC treated PDX mice",significant tumor growth inhibition
same,phosphorylated rpS6 (S235/S236) levels,rpS6 (S235/S236),doesn't affect the phosphorylation status of rpS6
same,translation rate (incorporated puromycin signal),[2],translation inhibition
same,knockdown and phenotypic effect compared to LNA ASO 11,SAMMSON,more efficient knockdown and phenotypic effect
same,expression pattern of differentially expressed genes compared to NTC ASO,[3],reverses the expression pattern
